Assay results published in the supplement of paper PMC10307832.

Key:
Assay in all cases: relative viability (nuclei count vs DMSO), 5 days (fraction); higher = more cells survive
[1] = compound: CN(C)C[C@@H]1CCn2cc(c3ccccc32)C2=C(C(=O)NC2=O)c2cn(c3ccccc23)CCO1 [Ruboxistaurin] + Cc1nc(NC(=O)N2CCC[C@H]2C(N)=O)sc1-c1ccnc(C(C)(C)C(F)(F)F)c1 [Alpelisib] (partner 2 µM)
Method in brief: (§1)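 Medians of duplicate plates are given as relative viability. That measure is the nuclei count in treated wells divided by the count in vehicle wells. Counts were taken on 4× images of lung cancer cell lines in 1536-well plates, 5 days after pin-tool dosing the day after seeding with one drug alone or a fixed anchor-drug dose plus five library-drug doses (not always all listed) in √10 steps.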

[2] = compound: CN(C)C[C@@H]1CCn2cc(c3ccccc32)C2=C(C(=O)NC2=O)c2cn(c3ccccc23)CCO1 [Ruboxistaurin] + Nc1ncn([C@H]2C[C@H](O)[C@@H](CO)O2)c(=O)n1 [Decitabine] (partner 2 µM)
Method in brief: as §1

[3] = compound: CN(C)C[C@@H]1CCn2cc(c3ccccc32)C2=C(C(=O)NC2=O)c2cn(c3ccccc23)CCO1 [Ruboxistaurin] + COc1cc2c(Oc3ccc(NC(=O)C4(C(=O)Nc5ccc(F)cc5)CC4)cc3F)ccnc2cc1OCCCN1CCOCC1 [Foretinib] (partner 0.25 µM)
Method in brief: as §1

Ruboxistaurin + OSI-027 = compound: CN(C)C[C@@H]1CCn2cc(c3ccccc32)C2=C(C(=O)NC2=O)c2cn(c3ccccc23)CCO1 [Ruboxistaurin] + COc1cccc2cc(-c3nc([C@H]4CC[C@H](C(=O)O)CC4)n4ncnc(N)c34)[nH]c12 [OSI-027] (partner 0.5 µM)
Method in brief: as §1

[4] = compound: CN(C)C[C@@H]1CCn2cc(c3ccccc32)C2=C(C(=O)NC2=O)c2cn(c3ccccc23)CCO1 [Ruboxistaurin] + CCNC(=O)c1noc(-c2cc(C(C)C)c(O)cc2O)c1-c1ccc(CN2CCOCC2)cc1 [Luminespib] (partner 0.01 µM)
Method in brief: as §1

| Cell Line | relative viability ([1]; first compound 0.08 µM) | relative viability ([1]; first compound 0.8 µM) | relative viability ([1]; first compound 2.53 µM) | relative viability ([1]; first compound 8 µM) | relative viability ([2]; first compound 0.08 µM) | relative viability ([2]; first compound 0.8 µM) | relative viability ([2]; first compound 2.53 µM) | relative viability ([2]; first compound 8 µM) | relative viability ([3]; first compound 0.08 µM) | relative viability ([3]; first compound 0.8 µM) | relative viability ([3]; first compound 2.53 µM) | relative viability ([3]; first compound 8 µM) | relative viability (Ruboxistaurin + OSI-027; first compound 0.08 µM) | relative viability (Ruboxistaurin + OSI-027; first compound 0.8 µM) | relative viability (Ruboxistaurin + OSI-027; first compound 2.53 µM) | relative viability (Ruboxistaurin + OSI-027; first compound 8 µM) | relative viability ([4]; first compound 0.08 µM) | relative viability ([4]; first compound 0.8 µM) | relative viability ([4]; first compound 2.53 µM) | relative viability ([4]; first compound 8 µM) |
| --- | --- | --- | --- | --- | --- | --- | --- | --- | --- | --- | --- | --- | --- | --- | --- | --- | --- | --- | --- | --- |
| NCI-H1944 | 0.866 | 0.722 | 0.716 | 0.738 | 0.439 | 0.403 | 0.405 | 0.46 | 0.933 | 0.844 | 0.856 | 0.719 | 0.411 | 0.334 | 0.404 | 0.271 | 0.406 | 0.632 | 0.72 | 0.726 |
| NCI-H2023 | 0.633 | 0.565 | 0.605 | 0.415 | 0.214 | 0.214 | 0.254 | 0.256 | 1.22 | – | 0.787 | 0.693 | 0.438 | 0.309 | 0.271 | 0.158 | 0.679 | 0.426 | 0.668 | 0.344 |
| NCI-H1395 | 1.06 | 0.944 | 1.12 | 0.931 | 0.666 | 0.667 | 0.781 | 0.686 | 0.993 | 0.904 | 1.02 | 0.911 | 0.653 | 0.647 | 0.662 | 0.597 | 0.918 | 0.66 | 0.769 | 0.488 |
| NCI-H2087 | 1.07 | 0.971 | 1.24 | 0.952 | 0.243 | 0.21 | 0.241 | 0.263 | 1.2 | 0.934 | 1.07 | 0.876 | 0.627 | 0.492 | 0.449 | 0.309 | 0.175 | 0.215 | 0.162 | 0.156 |
| NCI-H838 | 1.13 | 0.903 | 0.966 | 0.852 | 0.476 | 0.445 | 0.526 | 0.583 | 1.13 | 0.923 | 1.19 | 0.998 | 0.4 | 0.33 | 0.301 | 0.313 | 0.292 | 0.239 | 0.425 | 0.382 |
| NCI-H1793 | 0.939 | 0.517 | 0.615 | 0.817 | 0.461 | – | 0.614 | 0.549 | 0.637 | 0.576 | 0.652 | 0.687 | 0.262 | 0.239 | 0.273 | 0.265 | 0.148 | 0.152 | 0.172 | 0.188 |
| LC-2-ad | 0.779 | 0.785 | 0.846 | 0.783 | 0.71 | 0.887 | 0.753 | 0.847 | 1.03 | 0.905 | 1.02 | 0.747 | 0.935 | 0.842 | 0.86 | 0.781 | 1.22 | 0.989 | 1.01 | 1.1 |
| LOU-NH91 | 0.846 | 0.666 | 0.705 | 0.676 | 0.909 | 0.772 | 0.855 | 0.775 | 1.02 | 0.879 | 0.898 | 0.944 | 0.748 | 0.629 | 0.663 | 0.676 | 0.286 | 0.298 | 0.361 | 0.369 |
| NCI-H1734 | 0.768 | 0.641 | 0.663 | 0.57 | 0.535 | 0.466 | 0.501 | 0.521 | 0.852 | 0.783 | 0.922 | 0.683 | 0.628 | 0.411 | 0.56 | 0.385 | 0.174 | 0.161 | 0.179 | 0.178 |
| NCI-H520 | 0.976 | 0.789 | 1.01 | 0.822 | 0.535 | 0.477 | 0.544 | 0.612 | 0.628 | 0.693 | 1.05 | 0.786 | 0.192 | 0.258 | 0.233 | 0.218 | 0.227 | 0.182 | 0.227 | 0.225 |
| UMC-11 | 0.966 | 0.896 | 0.95 | 0.743 | 0.672 | 0.51 | 0.676 | 0.61 | 1.05 | 0.951 | 0.904 | 0.646 | 0.437 | 0.403 | 0.37 | 0.301 | 1.04 | 0.804 | 0.961 | 0.695 |
| NCI-H596 | 0.494 | 0.461 | 0.502 | 0.414 | 0.978 | 0.892 | 0.987 | 0.973 | 0.817 | 0.671 | 0.766 | 0.679 | 0.811 | 0.552 | 0.799 | 0.508 | 0.93 | 0.943 | 1.26 | 0.794 |
| NCI-H1755 | 0.962 | 0.839 | 0.897 | 0.834 | 0.731 | 0.678 | 0.691 | 0.778 | 0.907 | 0.903 | 0.908 | 0.888 | 0.714 | 0.621 | 0.614 | 0.549 | 0.511 | 0.328 | 0.417 | 0.406 |
| SK-LU-1 | 1.07 | 0.81 | 0.921 | 0.782 | 0.744 | 0.573 | 0.668 | 0.751 | 0.93 | 0.809 | 0.772 | 0.683 | 0.386 | 0.322 | 0.307 | 0.264 | 0.208 | 0.212 | 0.204 | 0.2 |
| NCI-H647 | 1.2 | 0.995 | 1.06 | 0.899 | 0.442 | 0.33 | 0.373 | 0.547 | 1.27 | 0.832 | 1.19 | 1.32 | 0.754 | 0.532 | 0.432 | 0.42 | 0.17 | 0.114 | 0.217 | 0.232 |
